Experimental data from PubChem BioAssay AID330 (DTP/NCI, 2004).
Where “and” joins values, the source holds several entries; their conditions need not be identical. Equal entries are not always repeated. Inconclusive results and toxic doses are left out. How the source made its calls: active means survival T/C of 150% or more; inactive means T/C below 125% in these data.

Tested on: P388 leukemia ip, CD2F1 mice, survival T/C
Experiment: NCI In Vivo Anticancer Drug Screen. Data for tumor model P388 Leukemia (intraperitoneal) in CD2F1 (CDF1) mice
Conditions: endpoint: median survival time, higher = longer survival
Outline: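 Mice carrying the transplanted tumor received test compound or vehicle. Survival was recorded in each group, and the value is the treated-group measurement divided by that of the vehicle-treated control group.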

[1] = dose: 50.0 mg/kg/injection, schedule: Q01DX005 (ip), vehicle: saline with Tween-80
[2] = dose: 100.0 mg/kg/injection, schedule: Q01DX005 (ip), vehicle: saline with Tween-80
[3] = dose: 50.0 mg/kg/injection, schedule: Q01DX009 (ip), vehicle: saline with Tween-80
[4] = dose: 100.0 mg/kg/injection, schedule: Q01DX009 (ip), vehicle: saline with Tween-80
[5] = dose: 50.0 mg/kg/injection, schedule: Q01DX005 (ip), vehicle: Klucel (hydroxypropylcellulose) (HPC)
[6] = dose: 50.0 mg/kg/injection, schedule: Q01DX009 (ip), vehicle: saline
[7] = dose: 100.0 mg/kg/injection, schedule: Q01DX009 (ip), vehicle: saline
[8] = dose: 200.0 mg/kg/injection, schedule: Q01DX009 (ip), vehicle: saline
[9] = dose: 100.0 mg/kg/injection, schedule: Q01DX005 (ip), vehicle: Klucel (hydroxypropylcellulose) (HPC)
[10] = dose: 200.0 mg/kg/injection, schedule: Q01DX005 (ip), vehicle: Klucel (hydroxypropylcellulose) (HPC)
[11] = dose: 6.25 mg/kg/injection, schedule: Q01DX009 (ip), vehicle: saline with Tween-80
[12] = dose: 12.5 mg/kg/injection, schedule: Q01DX009 (ip), vehicle: saline with Tween-80
[13] = dose: 100.0 mg/kg/injection, schedule: Q04DX003 (ip), vehicle: saline with Tween-80

Measured: T/C

CC1C2(c3ccccc3)C(C(=O)c3ccccc3)NC(c3ccccc3)C12c1ccccc1 (stereo not drawn)
inactive: [1] 87 % of control | [2] 87 % of control

Cc1ccc(Cl)c2ccccc12
inactive: [3] 113 % of control | [4] 108 % of control

CCOC(=O)C(=CC=C(C(=O)OCC)C(=O)OCC)C(=O)OCC
inactive: dose: 100.0 mg/kg/injection, schedule: Q04DX002 (ip), vehicle: saline with Tween-80 112 % of control | dose: 200.0 mg/kg/injection, schedule: Q04DX002 (ip), vehicle: saline with Tween-80 113 % of control | dose: 400.0 mg/kg/injection, schedule: Q04DX002 (ip), vehicle: saline with Tween-80 115 % of control

N#Cc1nc(CC(=O)c2ccc(Cl)c(Cl)c2)c(CC(=O)c2ccc(Cl)c(Cl)c2)nc1C#N
inactive: dose: 60.0 mg/kg/injection, schedule: Q01DX005 (ip), vehicle: saline with Tween-80 114 % of control | dose: 120.0 mg/kg/injection, schedule: Q01DX005 (ip), vehicle: saline with Tween-80 120 % of control | dose: 240.0 mg/kg/injection, schedule: Q01DX005 (ip), vehicle: saline with Tween-80 86 % of control

O=C1CCCCCC2=NC12 (stereo not drawn)
inactive: dose: 6.25 mg/kg/injection, schedule: Q01DX005 (ip), vehicle: Klucel (hydroxypropylcellulose) (HPC) 105 % of control and 90 % of control | dose: 12.5 mg/kg/injection, schedule: Q01DX005 (ip), vehicle: Klucel (hydroxypropylcellulose) (HPC) 103 % of control and 109 % of control | dose: 25.0 mg/kg/injection, schedule: Q01DX005 (ip), vehicle: Klucel (hydroxypropylcellulose) (HPC) 113 % of control and 118 % of control | [5] 116 % of control

c1ccc(-c2[nH]c3ccccc3c2-c2c(-c3ccccc3)[nH]c3ccccc23)cc1
inactive: [6] 100 % of control | [7] 96 % of control | [8] 98 % of control

CC1(c2ccc(Cl)cc2)OC(=O)CC(=O)O1
inactive: [5] 99 % of control | [9] 100 % of control | [10] 100 % of control

CC1CN2CC(C)O[Si](CC[Si]34OC(C)CN(CC(C)O3)CC(C)O4)(O1)OC(C)C2 (stereo not drawn)
inactive: [5] 108 % of control | [9] 106 % of control | [10] 105 % of control

CCN(CC)CCCSCCCNc1cc(OC)cc2cccnc12
inactive: dose: 12.5 mg/kg/injection, schedule: Q01DX005 (ip), vehicle: saline 105 % of control | dose: 25.0 mg/kg/injection, schedule: Q01DX005 (ip), vehicle: saline 100 % of control | dose: 50.0 mg/kg/injection, schedule: Q01DX005 (ip), vehicle: saline 99 % of control and 91 % of control

C/C(=N\NC(=S)N1CCN(C)CC1)c1ccccn1
inactive: dose: 25.0 mg/kg/injection, schedule: Q04DX003 (ip), vehicle: saline 104 % of control | dose: 50.0 mg/kg/injection, schedule: Q04DX003 (ip), vehicle: saline 107 % of control | dose: 100.0 mg/kg/injection, schedule: Q04DX003 (ip), vehicle: saline 101 % of control

O=S(=O)(O)c1ccccc1N=Nc1ccc(N(CCCl)CCCl)cc1
active: [4] 156 % of control

CCN(CC)CCNc1ccc(CO)c2oc3ccc(OS(=O)(=O)c4ccc(C)cc4)cc3c(=O)c12
inactive: [1] 99 % of control | [2] 106 % of control | dose: 200.0 mg/kg/injection, schedule: Q01DX005 (ip), vehicle: saline with Tween-80 122 % of control

CCOC(=O)[C]1([Pb]([CH3])([CH3])[CH3])N=NC(C(=O)OC)=C1C(=O)OC (stereo not drawn)
inactive: dose: 0.78 mg/kg/injection, schedule: Q01DX009 (ip), vehicle: saline 89 % of control | dose: 1.56 mg/kg/injection, schedule: Q01DX009 (ip), vehicle: saline 90 % of control | dose: 3.12 mg/kg/injection, schedule: Q01DX009 (ip), vehicle: saline 90 % of control

O=C(O)CC12CCC(CC1)OC2=O
inactive: [6] 100 % of control | [7] 106 % of control | [8] 97 % of control

C/C(=N\NC(=S)N1CCC1)c1ccccn1
inactive: dose: 1.56 mg/kg/injection, schedule: Q01DX005 (ip), vehicle: other 99 % of control | dose: 3.12 mg/kg/injection, schedule: Q01DX005 (ip), vehicle: other 103 % of control | dose: 6.25 mg/kg/injection, schedule: Q01DX005 (ip), vehicle: other 99 % of control | [11] 95 % of control | dose: 12.5 mg/kg/injection, schedule: Q01DX005 (ip), vehicle: other 94 % of control | [12] 99 % of control | dose: 25.0 mg/kg/injection, schedule: Q01DX005 (ip), vehicle: other 100 % of control

O=C(O)[C@@H](NC(=O)C(Cl)(Cl)Cl)[C@@H]1CC(Br)=NO1
inactive: dose: 15.0 mg/kg/injection, schedule: Q01DX005 (ip), vehicle: distilled water + Tween-80 107 % of control and 118 % of control and 122 % of control | dose: 30.0 mg/kg/injection, schedule: Q01DX005 (ip), vehicle: distilled water + Tween-80 107 % of control | dose: 120.0 mg/kg/injection, schedule: Q01DX005 (ip), vehicle: distilled water + Tween-80 114 % of control and 98 % of control

NC(C(=O)O)c1ccc(CBr)cc1 (stereo not drawn)
active: dose: 25.0 mg/kg/injection, schedule: Q04DX003 (ip), vehicle: saline with Tween-80 151 % of control | [13] 151 % of control and 165 % of control

NC(Cc1ccc(Cl)cc1)c1nn[nH]n1 (stereo not drawn)
inactive: dose: 25.0 mg/kg/injection, schedule: Q01DX009 (ip), vehicle: saline with Tween-80 99 % of control | [3] 99 % of control | [4] 101 % of control

COc1cc(C(=O)O)c2c(c1C)OC(=O)c1c(C)cc(O)c(C=O)c1O2
inactive: dose: 6.25 mg/kg/injection, schedule: Q01DX009 (ip), vehicle: saline 119 % of control | dose: 12.5 mg/kg/injection, schedule: Q01DX009 (ip), vehicle: saline 119 % of control | dose: 25.0 mg/kg/injection, schedule: Q01DX009 (ip), vehicle: saline 100 % of control | dose: 26.0 mg/kg/injection, schedule: Q04DX003 (ip), vehicle: saline 116 % of control | dose: 40.0 mg/kg/injection, schedule: Q04DX003 (ip), vehicle: saline 112 % of control | dose: 60.0 mg/kg/injection, schedule: Q04DX003 (ip), vehicle: saline 119 % of control

CC1CCCCN1CCCNC(=O)Nc1ccc(Cc2ccc(NC(=O)NCCCN3CCCCC3C)cc2)cc1 (stereo not drawn)
inactive: dose: 0.79 mg/kg/injection, schedule: Q01DX009 (ip), vehicle: Klucel (hydroxypropylcellulose) (HPC) 95 % of control | dose: 1.56 mg/kg/injection, schedule: Q01DX009 (ip), vehicle: Klucel (hydroxypropylcellulose) (HPC) 97 % of control

CCN(CC)N=Nc1ccc(NC(C)=O)cc1
inactive: dose: 6.25 mg/kg/injection, schedule: Q04DX003 (ip), vehicle: Klucel (hydroxypropylcellulose) (HPC) 102 % of control | dose: 12.5 mg/kg/injection, schedule: Q04DX003 (ip), vehicle: Klucel (hydroxypropylcellulose) (HPC) 101 % of control | dose: 25.0 mg/kg/injection, schedule: Q04DX003 (ip), vehicle: Klucel (hydroxypropylcellulose) (HPC) 102 % of control

COC(=O)/C=C(\I)C(=O)OC
inactive: dose: 3.13 mg/kg/injection, schedule: Q01DX009 (ip), vehicle: saline with Tween-80 104 % of control | [11] 101 % of control | [12] 92 % of control

C1=Cc2ccccc2/C1=C/c1cc2c3c(c1)CCCN3CCC2
inactive: dose: 60.0 mg/kg/injection, schedule: Q01DX005 (ip), vehicle: Klucel (hydroxypropylcellulose) (HPC) 95 % of control | dose: 120.0 mg/kg/injection, schedule: Q01DX005 (ip), vehicle: Klucel (hydroxypropylcellulose) (HPC) 91 % of control | dose: 240.0 mg/kg/injection, schedule: Q01DX005 (ip), vehicle: Klucel (hydroxypropylcellulose) (HPC) 92 % of control

C/C(=C\C=C1\N(C)c2ccccc2C1(C)C)N=C(C#N)C#N
inactive: dose: 50.0 mg/kg/injection, schedule: Q04DX003 (ip), vehicle: saline with Tween-80 93 % of control | [13] 91 % of control | dose: 200.0 mg/kg/injection, schedule: Q04DX003 (ip), vehicle: saline with Tween-80 96 % of control

C=C1C(=O)OC2/C=C(/C)C3CC(O)C(C)(CC(OC(=O)/C(C)=C/C)C12)O3 (stereo not drawn)
inactive: dose: 10.0 mg/kg/injection, schedule: Q01DX009 (ip), vehicle: saline with Tween-80 96 % of control and 105 % of control | dose: 20.0 mg/kg/injection, schedule: Q01DX009 (ip), vehicle: saline with Tween-80 96 % of control and 107 % of control | dose: 40.0 mg/kg/injection, schedule: Q01DX009 (ip), vehicle: saline with Tween-80 109 % of control and 119 % of control | dose: 80.0 mg/kg/injection, schedule: Q01DX009 (ip), vehicle: saline with Tween-80 123 % of control and 117 % of control
